Measurements: US10927105B1 (Lundbeck La Jolla Research Center, Inc., priority 2017, dated 2021)

Molecular target: MAGL (Homo sapiens (Human), UniProt Q99685)
Test: In vitro competitive activity-based protein profiling (human prefrontal cortex membrane fractions, FP-Rh probe), MAGL band
Settings: read-out: MAGL IC50 (μM) (human); human prefrontal cortex membrane fractions

MAGL, sequence (Q99685 whole entry): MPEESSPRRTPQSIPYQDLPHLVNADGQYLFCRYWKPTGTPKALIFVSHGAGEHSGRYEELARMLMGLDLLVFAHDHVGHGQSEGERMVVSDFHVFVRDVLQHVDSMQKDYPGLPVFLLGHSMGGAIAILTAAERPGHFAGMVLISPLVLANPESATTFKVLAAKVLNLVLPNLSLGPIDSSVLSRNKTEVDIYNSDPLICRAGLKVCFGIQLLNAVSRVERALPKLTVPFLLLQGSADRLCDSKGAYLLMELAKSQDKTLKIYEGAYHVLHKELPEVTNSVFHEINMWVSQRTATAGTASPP

SMILES	IC50
O=C(O)c1ccn(C(=O)N2CCC(Oc3ccc(C(F)(F)F)cc3N3CCCC3)CC2)n1 [Example 307, 1-(4-(2-(pyrrolidin-1-yl)-4-(trifluoromethyl)-phenoxy)-piperidine-1-carbonyl)-1H-pyrazole-3-carboxylic acid]	< 0.1 µM
O=C(O)c1ccn(C(=O)N2CCC(Oc3cc(N4CCCC4)cc(C(F)(F)F)c3)CC2)n1 [Example 308, 1-(4-(3-(pyrrolidin-1-yl)-5-(trifluoromethyl)-phenoxy)-piperidine-1-carbonyl)-1H-pyrazole-3-carboxylic acid]	< 0.1 µM
C[C@H]1CN(Cc2cccc(Oc3ccc(Cl)cc3)c2)CCN1C(=O)n1ccc(C(=O)O)n1 [Example 311, (S)-1-(4-(3-(4-chlorophenoxy)-benzyl)-2-methylpiperazine-1-carbonyl)-1H-pyrazole-3-carboxylic acid]	< 0.1 µM
O=C(O)c1ccn(C(=O)N2CCC3(CC2)CN(Cc2cc(Cl)ccc2C(F)(F)F)C3)n1 [Example 313, 1-(2-(5-chloro-2-(trifluoromethyl)-benzyl)-2,7-diazaspiro[3.5]-nonane-7-carbonyl)-1H-pyrazole-3-carboxylic acid]	< 0.1 µM
O=C(O)c1nn(C(=O)N2C[C@H]3C[C@H](OCc4cccc(C(F)(F)F)c4)C[C@H]3C2)cc1Cl [Example 314, 4-chloro-1-(trans-5-((3-(trifluoromethyl)-benzyl)oxy)-octahydrocyclopenta-[c]pyrrole-2-carbonyl)-1H-pyrazole-3-carboxylic acid]	< 0.1 µM
O=C(O)c1ccn(C(=O)N2C[C@H]3C[C@H](Oc4ccc(Cl)c(-c5nccs5)c4)C[C@H]3C2)n1 [Example 318, 1-(trans-5-(4-chloro-3-(thiazol-2-yl)phenoxy)-octahydrocyclopenta-[c]pyrrole-2-carbonyl)-1H-pyrazole-3-carboxylic acid]	< 0.1 µM
O=C(O)c1ccn(C(=O)N2CCN(Cc3cc(F)cc(Oc4ccccc4Cl)c3)CC2)n1 [Example 319, 1-(4-(3-(2-chlorophenoxy)-5-fluorobenzyl)-piperazine-1-carbonyl)-1H-pyrazole-3-carboxylic acid]	< 0.1 µM
O=C(O)c1nn(C(=O)N2CCN(Cc3cccc(Oc4ccc(F)cc4)c3)CC2)cc1Cl [Example 320, 4-chloro-1-(4-(3-(4-fluorophenoxy)-benzyl)-piperazine-1-carbonyl)-1H-pyrazole-3-carboxylic acid]	< 0.1 µM
O=C(O)c1ccn(C(=O)N2CCN(Cc3cc(F)cc(Oc4cccc(Cl)c4)c3)CC2)n1 [Example 321, 1-(4-(3-(3-chlorophenoxy)-5-fluorobenzyl)-piperazine-1-carbonyl)-1H-pyrazole-3-carboxylic acid]	< 0.1 µM
O=C(O)c1nn(C(=O)N2CCN(Cc3cc(Cl)cc(-c4cncnc4)c3)CC2)cc1Cl [Example 323, 4-chloro-1-(4-(3-chloro-5-(pyrimidin-5-yl)benzyl)-piperazine-1-carbonyl)-1H-pyrazole-3-carboxylic acid]	< 0.1 µM
C[C@@H]1CN(Cc2ccc(C(F)(F)F)cc2N2CCCC2)CCN1C(=O)n1ccc(C(N)=O)n1 [Example 325, (R)-1-(2-methyl-4-(2-(pyrrolidin-1-yl)-4-(trifluoromethyl)-benzyl)piperazine-1-carbonyl)-1H-pyrazole-3-carboxamide]	< 0.1 µM
C[C@@H]1CN(Cc2ccc(C(F)(F)F)cc2N2CCCC2)CCN1C(=O)n1ccc(C(=O)O)n1 [Example 327, (R)-1-(2-methyl-4-(2-(pyrrolidin-1-yl)-4-(trifluoromethyl)-benzyl)-piperazine-1-carbonyl)-1H-pyrazole-3-carboxylic acid]	< 0.1 µM
O=C(O)c1ccn(C(=O)N2CCC(OCc3cc(N4CCCC4)cc(C(F)(F)F)c3)CC2)n1 [Example 331, 1-(4-((3-(pyrrolidin-1-yl)-5-(trifluoromethyl)-benzyl)-oxy)piperidine-1-carbonyl)-1H-pyrazole-3-carboxylic acid]	< 0.1 µM
O=C(O)c1ccn(C(=O)N2CCN(Cc3ccc(C(F)(F)F)cc3N3CC[C@@H](O)C3)CC2)n1 [Example 333, (R)-1-(4-(2-(3-hydroxypyrrolidin-1-yl)-4-(trifluoromethyl)-benzyl)-piperazine-1-carbonyl)-1H-pyrazole-3-carboxylic acid]	< 0.1 µM
O=C(O)c1ccn(C(=O)N2CCC3(CCN(Cc4cc(Cl)cc(Cl)c4Cl)C3)CC2)n1 [Example 337, 1-(2-(2,3,5-trichlorobenzyl)-2,8-diazaspiro[4.5]-decane-8-carbonyl)-1H-pyrazole-3-carboxylic acid]	< 0.1 µM
O=C(O)c1ccn(C(=O)N2CCC3(CCN(Cc4cccc(C(F)(F)F)c4Cl)C3)CC2)n1 [Example 339, 1-(2-(2-chloro-3-(trifluoromethyl)-benzyl)-2,8-diazaspiro[4.5]-decane-8-carbonyl)-1H-pyrazole-3-carboxylic acid]	< 0.1 µM

SMILES	IC50
Cc1c(CO[C@H]2C[C@@H]3CN(C(=O)n4cc(Cl)c(C(=O)O)n4)C[C@@H]3C2)cccc1C(F)(F)F [Example 341, 4-chloro-1-(trans-5-((2-methyl-3-(trifluoromethyl)-benzyl)oxy)-octahydrocyclopenta-[c]pyrrole-2-carbonyl)-1H-pyrazole-3-carboxylic acid]	< 0.1 µM
O=C(O)c1ccn(C(=O)N2C[C@H]3C[C@H](OCc4ccc(Cl)c(-c5nccs5)c4)C[C@H]3C2)n1 [Example 345, 1-(trans-5-((4-chloro-3-(thiazol-2-yl)benzyl)oxy)-octahydrocyclopenta-[c]pyrrole-2-carbonyl)-1H-pyrazole-3-carboxylic acid]	< 0.1 µM
Cc1cn(C(=O)N2CCN(Cc3cc(F)cc(Oc4ccc(Cl)cc4)c3)CC2)nc1C(=O)O [Example 346, 1-(4-(3-(4-chlorophenoxy)-5-fluorobenzyl)-piperazine-1-carbonyl)-4-methyl-1H-pyrazole-3-carboxylic acid]	< 0.1 µM
C[C@H]1CN(Cc2cc(F)cc(Oc3ccc(Cl)cc3)c2)CCN1C(=O)n1ccc(C(=O)O)n1 [Example 347, (S)-1-(4-(3-(4-chlorophenoxy)-5-fluorobenzyl)-2-methylpiperazine-1-carbonyl)-1H-pyrazole-3-carboxylic acid]	< 0.1 µM
C[C@@H]1CN(Cc2cc(F)cc(Oc3ccc(Cl)cc3)c2)CCN1C(=O)n1ccc(C(=O)O)n1 [Example 348, (R)-1-(4-(3-(4-chlorophenoxy)-5-fluorobenzyl)-2-methylpiperazine-1-carbonyl)-1H-pyrazole-3-carboxylic acid]	< 0.1 µM
C[C@H]1CN(Cc2cc(F)cc(Oc3ccccc3Cl)c2)CCN1C(=O)n1ccc(C(=O)O)n1 [Example 349, (S)-1-(4-(3-(2-chlorophenoxy)-5-fluorobenzyl)-2-methylpiperazine-1-carbonyl)-1H-pyrazole-3-carboxylic acid]	< 0.1 µM
C[C@@H]1CN(Cc2ccc(-c3ccccc3)cc2C(F)(F)F)CCN1C(=O)n1ccc(C(=O)O)n1 [Example 351, (R)-1-(2-methyl-4-((3-(trifluoromethyl)-[1,1′-biphenyl]-4-yl)methyl)-piperazine-1-carbonyl)-1H-pyrazole-3-carboxylic acid]	< 0.1 µM
O=C(O)c1ccn(C(=O)N2CCN(Cc3cccc(Oc4cnccc4C(F)(F)F)c3)CC2)n1 [Example 352, 1-(4-(3-((4-(trifluoromethyl)-pyridin-3-yl)oxy)-benzyl)-piperazine-1-carbonyl)-1H-pyrazole-3-carboxylic acid]	< 0.1 µM
O=C(O)c1ccn(C(=O)N2CCN(Cc3cccc(Oc4cccc(C(F)(F)F)n4)c3)CC2)n1 [Example 353, 1-(4-(3-((6-(trifluoromethyl)-pyridin-2-yl)oxy)benzyl)-piperazine-1-carbonyl)-1H-pyrazole-3-carboxylic acid]	< 0.1 µM
O=C(O)c1ccn(C(=O)N2CCN(Cc3cccc(Oc4ccnc(C(F)(F)F)c4)c3)CC2)n1 [Example 355, 1-(4-(3-((2-(trifluoromethyl)-pyridin-4-yl)oxy)benzyl)-piperazine-1-carbonyl)-1H-pyrazole-3-carboxylic acid]	< 0.1 µM
O=C(O)c1nn(C(=O)N2CC3CN(Cc4cc(Cl)cc(C(F)(F)F)c4)CC3C2)cc1Cl (centres unmarked) [Example 357, 4-chloro-1-(5-(3-chloro-5-(trifluoromethyl)-benzyl)-octahydropyrrolo-[3,4-c]pyrrole-2-carbonyl)-1H-pyrazole-3-carboxylic acid]	< 0.1 µM
O=C(O)c1ccn(C(=O)N2CCC3(CCN(Cc4cccc(-c5ccccc5)c4Cl)C3)CC2)n1 [Example 358, 1-(2-((2-chloro-[1,1′-biphenyl]-3-yl)methyl)-2,8-diazaspiro[4.5]-decane-8-carbonyl)-1H-pyrazole-3-carboxylic acid]	< 0.1 µM
C[C@@H]1CC[C@@H](C)N1c1cc(C(F)(F)F)ccc1CN1CCN(C(=O)n2ccc(C(=O)O)n2)CC1 [Example 359, 1-(4-(2-((2R,5R)-2,5-dimethylpyrrolidin-1-yl)-4-(trifluoromethyl)-benzyl)piperazine-1-carbonyl)-1H-pyrazole-3-carboxylic acid]	< 0.1 µM
C[C@H]1CC[C@H](C)N1c1cc(C(F)(F)F)ccc1CN1CCN(C(=O)n2ccc(C(=O)O)n2)CC1 [Example 360, 1-(4-(2-((2S,5S)-2,5-dimethylpyrrolidin-1-yl)-4-(trifluoromethyl)-benzyl)piperazine-1-carbonyl)-1H-pyrazole-3-carboxylic acid]	< 0.1 µM
O=C(O)c1nn(C(=O)N2CCN(Cc3ccc(N4CCCC4)cc3C(F)(F)F)CC2)cc1Cl [Example 368, 4-chloro-1-(4-(4-(pyrrolidin-1-yl)-2-(trifluoromethyl)-benzyl)piperazine-1-carbonyl)-1H-pyrazole-3-carboxylic acid]	< 0.1 µM
O=C(O)c1ccn(C(=O)N2CCC3(CCN(Cc4cc(Cl)ccc4OC(F)(F)F)C3)CC2)n1 [Example 371, 1-(2-(5-chloro-2-(trifluoromethoxy)-benzyl)-2,8-diazaspiro[4.5]-decane-8-carbonyl)-1H-pyrazole-3-carboxylic acid]	< 0.1 µM
